{"source": "paper PMC9623506", "about": "“Development of a novel peptide inhibitor of subtilisin BPN′” (FEBS Open Bio, 2022)", "molecules": {"B1": {"name": "EGL: leech eglin‐C (protein, UniProt P01051 1-70, looked up)", "Eglin C": "TEFGSELKSFPEVVGKTVDQAREYFTLHYPQYDVYFLPEGSPVTLDLRYNRVRVFYNPGTNVVNHVPHVG"}, "B2": {"name": "SSI: Streptomyces subtilisin inhibitor (protein, UniProt P01006 32-144, looked up)", "Subtilisin inhibitor": "DAPSALYAPSALVLTVGKGVSATTAAPERAVTLTCAPGPSGTHPAAGSACADLAAVGGDLNALTRGEDVMCPMVYDPVLLTVDGVWQGKRVSYERVFSNECEMNAHGSSVFAF"}}, "key": {"subtilisin BPN′ [1]": {"target": "T1, subtilisin BPN′ (Bacillus amyloliquefaciens, UniProt P00782)", "T1 construct": "purchased Sigma-Aldrich (Tokyo, Japan)", "T1 sequence (P00782 108-382)": "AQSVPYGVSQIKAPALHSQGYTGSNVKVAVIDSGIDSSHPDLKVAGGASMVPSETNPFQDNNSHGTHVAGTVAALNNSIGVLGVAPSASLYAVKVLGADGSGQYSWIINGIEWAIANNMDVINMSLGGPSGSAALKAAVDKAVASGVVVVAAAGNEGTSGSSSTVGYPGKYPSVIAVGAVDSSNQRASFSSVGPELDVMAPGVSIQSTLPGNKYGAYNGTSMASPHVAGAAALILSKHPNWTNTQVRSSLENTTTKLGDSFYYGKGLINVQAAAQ", "experiment": "biochemical", "type": "biochemical", "conditions": "for Inhibitory activity / binding in words, by Ki: synthetic substrate N‐suc‐AAPF‐pNA, compared with prototype ASIP or single mutants", "protocol": "Subtilisin BPN′ and N‐succinyl‐Ala‐Ala‐Pro‐Phe‐p‐nitroanilide (N‐suc‐AAPF‐pNA) were purchased from Sigma‐Aldrich (Tokyo, Japan). The oligopeptides used in this study were synthesized by Eurofins Genomics (Tokyo, Japan). The formation of an S‐S bond in each peptide was accomplished by incubating an equimolar amount of cystine with the peptide, and the concentrations of the oxidized peptides were determined by amino acid analyses after hydrolysis of the peptide with 6 M HCl at 110 °C for 24 h in vacuo.\nThe inhibitory activities of peptides against subtilisin BPN′ were preliminarily measured using the casein‐Folin method. First, casein was incubated with subtilisin BPN′ in the absence or presence of various molar ratios of synthetic peptides at 37 °C and pH 7.0 for 10 min. Trichloroacetic acid was added to the reaction mixture to precipitate the undigested casein, and the supernatant was mixed with sodium carbonate and Folin's phenol reagent. The absorbance at 660 nm was then measured to determine the amount of peptide obtained by digestion. Inhibitory activity was defined as the reduction in the amount of peptides derived from the enzymatic digestion of casein in the presence of a synthetic peptide when compared to the amount of peptides in the absence of synthetic peptides. To determine the K i values, the proteolytic activities of subtilisin BPN′ in the presence of various molar ratios of synthetic peptides were measured using a synthetic substrate, N‐suc‐AAPF‐pNA, as described previously, and then, the K i values were calculated by nonlinear curve fitting using the Morrison equation [13]."}, "subtilisin BPN′ [2]": {"target": "T1, subtilisin BPN′", "conditions": "against subtilisin BPN′; cited from earlier work"}, "subtilisin BPN′ [3]": {"target": "T1, subtilisin BPN′", "experiment": "ASIP without a disulfide bond with subtilisin BPN′: inhibition and cleavage", "type": "biochemical", "from_the_text": "To clarify the relationship between disulfide bond formation and its activity as a subtilisin inhibitor, we measured the inhibitory activities of ASIP with or without a disulfide bond. […] The inhibitory properties of the oxidized form of ASIP were then investigated."}, "subtilisin Carlsberg": {"target": "subtilisin Carlsberg", "conditions": "against subtilisin Carlsberg; cited from earlier work", "from_the_text": "Table 3 Proteinaceous subtilisin inhibitors. Amino acid residue lengths, sequences from the P4 to P4′ positions, and K i values against subtilisin BPN′ or Carlsberg of the inhibitors are listed. The most conserved residues at each position are shown in bold font. Residue numbers at the P1 position are indicated by superscript numbers."}}, "note": "Read-outs that look alike come from different tables or passages of the source. Positions of bridges follow the written chain, without caps; N, C: chain ends. Residues, ends and D or L forms follow the SMILES beside them. No end group written: not given here.", "data": [{"molecule": "CC(C)C[C@@H]1NC(=O)[C@@H](NC(=O)[C@H](CO)NC(=O)[C@H](Cc2ccccc2)NC(=O)[C@H](CC(=O)O)NC(=O)[C@@H](N)CO)CSSC[C@@H](C(=O)N[C@@H](CCCNC(=N)N)C(=O)N[C@H](C(=O)O)[C@@H](C)O)NC(=O)CNC(=O)[C@H](CCC(=O)O)NC(=O)[C@H](CO)NC1=O", "note": "[ASIP] (H-SDFSCLSEGCRT-OH; disulfide 5-10)", "values": [{"measurement": "Ki", "setting": "subtilisin BPN′ [1]", "result": "13 ± 1.64", "unit": "nM"}]}, {"molecule": "CC(C)C[C@@H]1NC(=O)[C@@H](NC(=O)[C@H](CO)NC(=O)[C@H](Cc2ccccc2)NC(=O)[C@H](CC(=O)O)NC(=O)[C@@H](N)CO)CSSC[C@@H](C(=O)N[C@@H](CCCNC(=N)N)C(=O)N[C@@H](C)C(=O)O)NC(=O)CNC(=O)[C@H](CCC(=O)O)NC(=O)[C@H](C)NC1=O", "note": "[S7A + T12A] (H-SDFSCLAEGCRA-OH; disulfide 5-10)", "values": [{"measurement": "Ki", "setting": "subtilisin BPN′ [1]", "result": "2.72 ± 0.04", "unit": "nM"}]}, {"molecule": "CC(C)C[C@@H]1NC(=O)[C@@H](NC(=O)[C@H](CO)NC(=O)[C@H](Cc2ccccc2)NC(=O)[C@H](CC(=O)O)NC(=O)[C@@H](N)CO)CSSC[C@@H](C(=O)N[C@@H](CCCNC(=N)N)C(=O)N[C@@H](CCCCN)C(=O)O)NC(=O)CNC(=O)[C@H](CCC(=O)O)NC(=O)[C@H](C)NC1=O", "note": "[S7A + T12K] (H-SDFSCLAEGCRK-OH; disulfide 5-10)", "values": [{"measurement": "Ki", "setting": "subtilisin BPN′ [1]", "result": "0.3 ± 0.02", "unit": "nM"}]}, {"molecule": "CC(C)C[C@@H]1NC(=O)[C@@H](NC(=O)[C@H](CO)NC(=O)[C@H](Cc2ccccc2)NC(=O)[C@H](CC(=O)O)NC(=O)[C@@H](N)CO)CSSC[C@@H](C(=O)N[C@@H](CCCNC(=N)N)C(=O)N[C@H](C(=O)O)[C@@H](C)O)NC(=O)CNC(=O)[C@H](CCC(=O)O)NC(=O)[C@H](C)NC1=O", "note": "[S7A] (H-SDFSCLAEGCRT-OH; disulfide 5-10)", "values": [{"measurement": "Ki", "setting": "subtilisin BPN′ [1]", "result": "2.58 ± 0.2", "unit": "nM"}]}, {"molecule": "CC(C)C[C@@H]1NC(=O)[C@@H](NC(=O)[C@H](CO)NC(=O)[C@H](Cc2ccccc2)NC(=O)[C@H](CC(=O)O)NC(=O)[C@@H](N)CO)CSSC[C@@H](C(=O)N[C@@H](CCCNC(=N)N)C(=O)NCC(=O)O)NC(=O)CNC(=O)[C@H](CCC(=O)O)NC(=O)CNC1=O", "note": "[S7G + T12G] (H-SDFSCLGEGCRG-OH; disulfide 5-10)", "values": [{"measurement": "Ki", "setting": "subtilisin BPN′ [1]", "result": "7.73 ± 0.34", "unit": "nM"}]}, {"molecule": "CC(C)C[C@@H]1NC(=O)[C@@H](NC(=O)[C@H](CO)NC(=O)[C@H](Cc2ccccc2)NC(=O)[C@H](CC(=O)O)NC(=O)[C@@H](N)CO)CSSC[C@@H](C(=O)N[C@@H](CCCNC(=N)N)C(=O)N[C@H](C(=O)O)[C@@H](C)O)NC(=O)CNC(=O)[C@H](CCC(=O)O)NC(=O)CNC1=O", "note": "[S7G] (H-SDFSCLGEGCRT-OH; disulfide 5-10)", "values": [{"measurement": "Ki", "setting": "subtilisin BPN′ [1]", "result": "5.14 ± 0.3", "unit": "nM"}]}, {"molecule": "CC(C)C[C@@H]1NC(=O)[C@@H](NC(=O)[C@H](CO)NC(=O)[C@H](Cc2ccccc2)NC(=O)[C@H](CC(=O)O)NC(=O)[C@@H](N)CO)CSSC[C@@H](C(=O)N[C@@H](CCCNC(=N)N)C(=O)N[C@@H](C)C(=O)O)NC(=O)CNC(=O)[C@H](CCC(=O)O)NC(=O)[C@H](CO)NC1=O", "note": "[T12A] (H-SDFSCLSEGCRA-OH; disulfide 5-10)", "values": [{"measurement": "Ki", "setting": "subtilisin BPN′ [1]", "result": "17.4 ± 1.42", "unit": "nM"}]}, {"molecule": "CC(C)C[C@@H]1NC(=O)[C@@H](NC(=O)[C@H](CO)NC(=O)[C@H](Cc2ccccc2)NC(=O)[C@H](CC(=O)O)NC(=O)[C@@H](N)CO)CSSC[C@@H](C(=O)N[C@@H](CCCNC(=N)N)C(=O)N[C@@H](CC(=O)O)C(=O)O)NC(=O)CNC(=O)[C@H](CCC(=O)O)NC(=O)[C@H](CO)NC1=O", "note": "[T12D] (H-SDFSCLSEGCRD-OH; disulfide 5-10)", "values": [{"measurement": "Ki", "setting": "subtilisin BPN′ [1]", "result": "23.1 ± 3.35", "unit": "nM"}, {"measurement": "Inhibitory activity / binding in words, by Ki", "setting": "subtilisin BPN′ [1]", "result": "decreased the inhibitory activity"}]}, {"molecule": "CC(C)C[C@@H]1NC(=O)[C@@H](NC(=O)[C@H](CO)NC(=O)[C@H](Cc2ccccc2)NC(=O)[C@H](CC(=O)O)NC(=O)[C@@H](N)CO)CSSC[C@@H](C(=O)N[C@@H](CCCNC(=N)N)C(=O)NCC(=O)O)NC(=O)CNC(=O)[C@H](CCC(=O)O)NC(=O)[C@H](CO)NC1=O", "note": "[T12G] (H-SDFSCLSEGCRG-OH; disulfide 5-10)", "values": [{"measurement": "Ki", "setting": "subtilisin BPN′ [1]", "result": "10.6 ± 0.55", "unit": "nM"}]}, {"molecule": "CC(C)C[C@@H]1NC(=O)[C@@H](NC(=O)[C@H](CO)NC(=O)[C@H](Cc2ccccc2)NC(=O)[C@H](CC(=O)O)NC(=O)[C@@H](N)CO)CSSC[C@@H](C(=O)N[C@@H](CCCNC(=N)N)C(=O)N[C@@H](CCCCN)C(=O)O)NC(=O)CNC(=O)[C@H](CCC(=O)O)NC(=O)[C@H](CO)NC1=O", "note": "[T12K] (H-SDFSCLSEGCRK-OH; disulfide 5-10)", "values": [{"measurement": "Ki", "setting": "subtilisin BPN′ [1]", "result": "5.43 ± 0.29", "unit": "nM"}, {"measurement": "Inhibitory activity / binding in words, by Ki", "setting": "subtilisin BPN′ [1]", "result": "significantly higher inhibition and binding affinity"}]}, {"molecule": "CC(C)C[C@H](NC(=O)[C@H](CCCNC(=N)N)NC(=O)[C@@H]1CSSC[C@H](NC(=O)[C@H](CO)NC(=O)[C@H](Cc2ccccc2)NC(=O)[C@H](CC(=O)O)NC(=O)[C@@H](N)CO)C(=O)N[C@@H](CC(C)C)C(=O)N[C@@H](CO)C(=O)N[C@@H](CCC(=O)O)C(=O)NCC(=O)N1)C(=O)O", "note": "[T12L] (H-SDFSCLSEGCRL-OH; disulfide 5-10)", "values": [{"measurement": "Ki", "setting": "subtilisin BPN′ [1]", "result": "12.9 ± 1.02", "unit": "nM"}]}, {"molecule": "CC(C)C[C@@H]1NC(=O)[C@@H](NC(=O)[C@H](CO)NC(=O)[C@H](Cc2ccccc2)NC(=O)[C@H](CC(=O)O)NC(=O)[C@@H](N)CO)CSSC[C@@H](C(=O)N[C@@H](CCCNC(=N)N)C(=O)N[C@@H](CCCNC(=N)N)C(=O)O)NC(=O)CNC(=O)[C@H](CCC(=O)O)NC(=O)[C@H](CO)NC1=O", "note": "[T12R] (H-SDFSCLSEGCRR-OH; disulfide 5-10)", "values": [{"measurement": "Ki", "setting": "subtilisin BPN′ [1]", "result": "4.41 ± 0.24", "unit": "nM"}, {"measurement": "Inhibitory activity / binding in words, by Ki", "setting": "subtilisin BPN′ [1]", "result": "significantly higher inhibition and binding affinity"}]}, {"molecule": "OMTKY3: turkey ovomucoid third domain", "values": [{"measurement": "Ki", "setting": "subtilisin BPN′ [2]", "result": 0.023, "unit": "nM"}]}, {"molecule": "SDFSCLSEGCRT (cysteine pairing not given here) [ASIP without a disulfide bond, ASIP without the Cys5‐Cys10 disulfide bond]", "values": [{"measurement": "Inhibitory activity against subtilisin BPN′ in words", "setting": "subtilisin BPN′ [3]; ASIP without a disulfide bond, substrate not stated", "result": "lacked inhibitory activity"}, {"measurement": "Cleavage by subtilisin BPN′", "setting": "subtilisin BPN′ [3]; reduced / linear form of ASIP, cleaved at the peptide bond between Leu6 and Ser7", "result": "specifically cleaved"}]}, {"molecule": "marinostatin (FATMRYPSDSDE) [MST]", "values": [{"measurement": "Ki", "setting": "subtilisin BPN′ [2]", "result": 1.5, "unit": "nM"}]}, {"molecule": "B1", "values": [{"measurement": "Ki", "setting": "subtilisin Carlsberg", "result": 0.15, "unit": "nM"}]}, {"molecule": "B2", "values": [{"measurement": "Ki", "setting": "subtilisin BPN′ [2]", "result": 0.005, "unit": "nM"}]}]}
